Columns and labels:
[1] = target: Protein arginine N-methyltransferase 3 (Homo sapiens, UniProt O60678); experiment: Inhibition of GST-tagged PRMT3 by methylation assay
[2] = target: T1, Histone-arginine methyltransferase CARM1 (Homo sapiens, UniProt Q86X55); experiment: Inhibition of human GST-tagged CARM1 by methylation assay
T1 sequence (Q86X55 whole entry): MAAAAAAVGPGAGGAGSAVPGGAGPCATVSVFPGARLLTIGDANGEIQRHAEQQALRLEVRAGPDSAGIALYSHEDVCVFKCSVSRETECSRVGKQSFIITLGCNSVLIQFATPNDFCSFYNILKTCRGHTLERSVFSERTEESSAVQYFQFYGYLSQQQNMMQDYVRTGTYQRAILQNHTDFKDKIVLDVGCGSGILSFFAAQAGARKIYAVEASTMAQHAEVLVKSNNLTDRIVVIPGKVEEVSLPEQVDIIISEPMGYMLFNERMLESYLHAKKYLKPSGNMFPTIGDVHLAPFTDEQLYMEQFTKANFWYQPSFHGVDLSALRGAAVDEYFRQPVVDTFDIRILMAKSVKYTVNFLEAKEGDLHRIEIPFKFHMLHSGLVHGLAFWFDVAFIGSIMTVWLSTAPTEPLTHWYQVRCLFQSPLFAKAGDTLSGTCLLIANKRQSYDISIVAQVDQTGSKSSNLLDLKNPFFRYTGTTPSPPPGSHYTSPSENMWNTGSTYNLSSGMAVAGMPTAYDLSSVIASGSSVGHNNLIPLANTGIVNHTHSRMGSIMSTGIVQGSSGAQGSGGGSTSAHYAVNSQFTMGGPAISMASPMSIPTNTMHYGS

[3] = target: Protein arginine N-methyltransferase 1 (Homo sapiens, UniProt Q99873); experiment: Inhibition of GST-tagged PRMT1 by methylation assay
Sequence of Protein arginine N-methyltransferase 1 (Q99873 whole entry): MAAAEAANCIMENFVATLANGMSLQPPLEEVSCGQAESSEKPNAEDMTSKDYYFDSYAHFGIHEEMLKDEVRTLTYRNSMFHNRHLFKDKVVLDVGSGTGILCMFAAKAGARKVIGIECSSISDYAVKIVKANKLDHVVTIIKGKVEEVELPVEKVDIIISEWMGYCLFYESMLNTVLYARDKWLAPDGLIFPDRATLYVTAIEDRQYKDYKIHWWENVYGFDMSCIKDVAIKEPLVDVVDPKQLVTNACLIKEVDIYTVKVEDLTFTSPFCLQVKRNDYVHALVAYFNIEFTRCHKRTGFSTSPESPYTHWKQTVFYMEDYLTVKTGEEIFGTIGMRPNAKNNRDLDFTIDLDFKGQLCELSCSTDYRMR

Sequence of Protein arginine N-methyltransferase 3 (O60678 whole entry): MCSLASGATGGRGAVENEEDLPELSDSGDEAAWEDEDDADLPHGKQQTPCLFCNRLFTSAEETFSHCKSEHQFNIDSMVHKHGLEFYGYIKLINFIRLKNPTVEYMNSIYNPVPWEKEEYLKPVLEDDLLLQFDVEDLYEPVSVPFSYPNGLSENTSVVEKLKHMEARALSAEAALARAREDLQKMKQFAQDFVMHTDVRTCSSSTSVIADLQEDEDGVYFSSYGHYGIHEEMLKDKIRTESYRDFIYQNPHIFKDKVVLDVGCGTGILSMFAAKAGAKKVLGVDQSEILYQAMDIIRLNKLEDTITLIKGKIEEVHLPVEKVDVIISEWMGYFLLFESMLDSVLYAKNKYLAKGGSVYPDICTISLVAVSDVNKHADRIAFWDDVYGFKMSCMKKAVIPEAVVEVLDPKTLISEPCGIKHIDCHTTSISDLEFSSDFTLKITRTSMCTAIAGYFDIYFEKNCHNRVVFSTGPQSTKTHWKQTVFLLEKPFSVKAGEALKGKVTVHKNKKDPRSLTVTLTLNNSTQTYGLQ

| Compound | IC50 [1] | IC50 [2] | IC50 [3] |
| --- | --- | --- | --- |
| C[C@H](N)C(=O)NCc1cccc(-n2nc(C(F)(F)F)cc2C(=O)NCc2ccccc2)c1 | > 25 µM | 0.08 µM | > 25 µM |
| CNC(=O)c1cc(C(F)(F)F)nn1-c1cccc(CNC(=O)CN)c1 | – | 10.6 µM | – |
| CS(=O)(=O)c1ccccc1-c1ccc(NC(=O)c2cc(C(F)(F)F)nn2-c2cccc(CNC(=O)CN)c2)cc1 | – | 1.8 µM | – |
| C[C@H](N)C(=O)NCc1cccc(-n2nc(C(F)(F)F)cc2C(=O)N[C@H](C)c2ccccc2)c1 | – | 0.18 µM | – |
| C[C@H](N)C(=O)NCc1cccc(-n2nc(C(F)(F)F)cc2C(=O)N[C@@H](C)c2ccccc2)c1 | – | 7.1 µM | – |
| NCC(=O)NCc1cccc(-n2nc(C(F)(F)F)cc2C(=O)Nc2ccccc2)c1 | – | 7.7 µM | – |
| C[C@H](N)C(=O)NCc1cccc(-n2nc(C(F)(F)F)cc2C(=O)Nc2ccc(-c3ccccc3S(C)(=O)=O)cc2F)c1 | – | 0.16 µM | – |
| NCC(=O)NCc1cccc(-n2nc(C(F)(F)F)cc2C(=O)Nc2ccc(-c3ccccc3)cc2)c1 | – | 1.42 µM | – |
| C[C@H](N)C(=O)NCc1ccc(-n2nc(C(F)(F)F)cc2C(=O)NCc2ccccc2)cc1 | – | > 50 µM | – |
| C[C@H](N)C(=O)NCc1cccc(-n2nc(C(F)(F)F)cc2C(=O)NCCc2ccccc2)c1 | – | 1.1 µM | – |
| CS(=O)(=O)c1cccc(NC(=O)c2cc(C(F)(F)F)nn2-c2cccc(CNC(=O)CN)c2)c1 | – | 0.23 µM | – |

Continued, values first:

| IC50 [1] | IC50 [2] | IC50 [3] | Compound |
| --- | --- | --- | --- |
| – | 29.8 µM | – | CN(C)C(=O)c1cc(C(F)(F)F)nn1-c1cccc(CNC(=O)CN)c1 |
| – | 0.6 µM | – | C[C@H](N)C(=O)NCc1cccc(-n2nc(C(F)(F)F)cc2NC(=O)OCc2ccccc2)c1 |
| – | 1.32 µM | – | C[C@H](N)C(=O)NCc1cccc(-n2nc(C(F)(F)F)cc2C(=O)Nc2ccccc2)c1 |
| – | 20.1 µM | – | C[C@@H](N)C(=O)NCc1cccc(-n2nc(C(F)(F)F)cc2C(=O)Nc2ccc(-c3ccccc3S(C)(=O)=O)cc2F)c1 |
| – | > 50 µM | – | C[C@H](N)C(=O)NCc1ccccc1-n1nc(C(F)(F)F)cc1C(=O)NCc1ccccc1 |
| – | 4.3 µM | – | C[C@H](N)C(=O)NCc1cccc(-n2nc(C(F)(F)F)cc2C(=O)NC2CCCCC2)c1 |
| – | 3.4 µM | – | C[C@H](N)C(=O)NCc1cccc(-n2nc(C(F)(F)F)cc2C(=O)N(C)Cc2ccccc2)c1 |
| – | > 30 µM | – | CNCC(=O)NCc1cccc(-n2nc(C(F)(F)F)cc2C(=O)Nc2ccc(-c3ccccc3S(C)(=O)=O)cc2F)c1 |
| – | > 30 µM | – | CC(C)(N)C(=O)NCc1cccc(-n2nc(C(F)(F)F)cc2C(=O)Nc2ccc(-c3ccccc3S(C)(=O)=O)cc2F)c1 |
| – | > 30 µM | – | CS(=O)(=O)c1ccccc1-c1ccc(NC(=O)c2cc(C(F)(F)F)nn2-c2cccc(CNC(=O)C(N)C(F)(F)F)c2)c(F)c1 (centres undefined) |
| – | 16.9 µM | – | CS(=O)(=O)c1ccccc1-c1ccc(NC(=O)c2cc(C(F)(F)F)nn2-c2cccc(CNC(=O)CCN)c2)c(F)c1 |

Source: ChEMBL document CHEMBL1155844, “Pyrazole inhibitors of coactivator associated arginine methyltransferase 1 (CARM1)” (Bioorg Med Chem Lett, 2008)
